Assay results as given in patent US12649727B2, “EFGR inhibitor, preparation method therefor and application thereof” (Abbisko Therapeutics Co., Ltd, priority 2020, dated 2026).

Experiments:
Assay type in all cases: cell-based
[1] = molecular target: Ba/F3 EGFR-D770-N771ins_SVD (Homo sapiens, UniProt P00533, DUP768-770, cells depend on it); experiment: Proliferation experiment of Ba/F3 cell line, EGFR-D770-N771ins_SVD (CellTiter-Glo); settings: cultured for 72 hrs with compound, CTG analysis, read-out: Ba/F3 EGFR-D770-N771ins_SVD IC50
Description: (§1) Proliferation Experiment of Ba/F3 Cell Line
(§2) (I) Reagents and Materials
(§3) • Fetal bovine serum FBS (GBICO, Cat #10099-141); • CellTiter-Glo® luminescent cell viability assay kit (Promega, Cat #G7572); • Black transparent flat-bottom 96 well plate (Corning®, Cat #3603). (II) Instruments • SpectraMax multi-label microplate reader MD, 2104-0010A; • Carbon dioxide incubator, Thermo Scientific 3100 series; • Biological safety cabinet, Thermo Scientific, 1300 series model A2; • Inverted microscope, Olympus, CKX41SF; • Siemens refrigerator KK25E76TI. (III) Cell Lines and Culture Conditions
(§4) (IV) Experimental Procedures 1. Cell Culture and Inoculation: • (1) Cells in the logarithmic growth phase were harvested and counted using a […]. Cell viability was detected by Trypan Blue Dye Exclusion Method to ensure cell viability above 90%. • (2) The cell concentration was adjusted to reach a desired final density; 90 μL of cell suspension was added to the 96-well plate. • (3) The cells were incubated overnight in the 96-well plate at 37° C., 5% CO2 and at 95% humidity.
(§5) 2. T0 Reference Data: • (1) 10 μL PBS was added to each well of the TO plate containing the cells. • (2) The CTG reagent was thawed and the cell plate was equilibrated to room temperature for 30 min. • (3) An equal volume of CTG solution was added to each well. • (4) The cells were lysed by shaking on an orbital shaker for 5 min. • (5) The cell plate was left at room temperature for 20 min to stabilize the luminescence signal. • (6) The fluorescence signal values of TO were read. 3. Dilution and Addition of Compounds • (1) According to the compound information table, a corresponding volume of DMSO was added to the corresponding compound powder to prepare a 10 mM stock solution. • (2) A 1000-fold, 3.16-fold-diluted compound solution was prepared. • (3) The 1000× diluted compound solution was diluted 100-fold with PBS to prepare a 10-fold compound solution with a maximum concentration of […], including 9 concentrations, with 3.16-fold dilution, and 10 μL of the medicament solution was added to each well of the 96-well plate to seed the cells. Triplicate wells were set for each compound concentration, with a final concentration of DMSO being 0.1%. • (4) The cells were placed in the 96-well plate filled with the medicament at 37° C., 5% CO2 and at 95% humidity, and cultured for 72 hrs before CTG analysis. 4. Fluorescence Signal Reading • (1) The CTG reagent was thawed and the cell plate was equilibrated to room temperature for 30 min. • (2) An equal volume of CTG solution was added to each well. • (3) The cells were lysed by shaking on an orbital shaker for 5 min. • (4) The cell plate was left at room temperature for 20 min to stabilize the fluorescence signal. • (5) The fluorescence values were read. 5. Data Processing
(§6) Data were analyzed using GraphPad Prism 7.0 software and fitted data were regressed using non-linear S-curves to obtain dose-response curves from which IC50 values (in nM) were calculated.

[2] = tested on: A431 (EGFR-WT); experiment: Proliferation experiment, A431 cell line (CellTiter-Glo); settings: Homo sapiens, A-431; A431 cells, cultured for 72 hrs with compound, CTG analysis
Description: [The procedure below names another cell line; the source lists this cell line under the same test.] as §1, §2, §3, §4, §5, §6

[3] = molecular target: Ba/F3 EGFR-V769_D770insASV (Homo sapiens, UniProt P00533, DUP767-769, cells depend on it); experiment: Proliferation experiment of Ba/F3 cell line, EGFR-V769_D770insASV (CellTiter-Glo); settings: cultured for 72 hrs with compound, CTG analysis, read-out: Ba/F3 EGFR-V769_D770insASV IC50
Description: as §1, §2, §3, §4, §5, §6

Chain of Ba/F3 EGFR-V769_D770insASV (P00533 with tags, fused parts or gaps DUP767-769): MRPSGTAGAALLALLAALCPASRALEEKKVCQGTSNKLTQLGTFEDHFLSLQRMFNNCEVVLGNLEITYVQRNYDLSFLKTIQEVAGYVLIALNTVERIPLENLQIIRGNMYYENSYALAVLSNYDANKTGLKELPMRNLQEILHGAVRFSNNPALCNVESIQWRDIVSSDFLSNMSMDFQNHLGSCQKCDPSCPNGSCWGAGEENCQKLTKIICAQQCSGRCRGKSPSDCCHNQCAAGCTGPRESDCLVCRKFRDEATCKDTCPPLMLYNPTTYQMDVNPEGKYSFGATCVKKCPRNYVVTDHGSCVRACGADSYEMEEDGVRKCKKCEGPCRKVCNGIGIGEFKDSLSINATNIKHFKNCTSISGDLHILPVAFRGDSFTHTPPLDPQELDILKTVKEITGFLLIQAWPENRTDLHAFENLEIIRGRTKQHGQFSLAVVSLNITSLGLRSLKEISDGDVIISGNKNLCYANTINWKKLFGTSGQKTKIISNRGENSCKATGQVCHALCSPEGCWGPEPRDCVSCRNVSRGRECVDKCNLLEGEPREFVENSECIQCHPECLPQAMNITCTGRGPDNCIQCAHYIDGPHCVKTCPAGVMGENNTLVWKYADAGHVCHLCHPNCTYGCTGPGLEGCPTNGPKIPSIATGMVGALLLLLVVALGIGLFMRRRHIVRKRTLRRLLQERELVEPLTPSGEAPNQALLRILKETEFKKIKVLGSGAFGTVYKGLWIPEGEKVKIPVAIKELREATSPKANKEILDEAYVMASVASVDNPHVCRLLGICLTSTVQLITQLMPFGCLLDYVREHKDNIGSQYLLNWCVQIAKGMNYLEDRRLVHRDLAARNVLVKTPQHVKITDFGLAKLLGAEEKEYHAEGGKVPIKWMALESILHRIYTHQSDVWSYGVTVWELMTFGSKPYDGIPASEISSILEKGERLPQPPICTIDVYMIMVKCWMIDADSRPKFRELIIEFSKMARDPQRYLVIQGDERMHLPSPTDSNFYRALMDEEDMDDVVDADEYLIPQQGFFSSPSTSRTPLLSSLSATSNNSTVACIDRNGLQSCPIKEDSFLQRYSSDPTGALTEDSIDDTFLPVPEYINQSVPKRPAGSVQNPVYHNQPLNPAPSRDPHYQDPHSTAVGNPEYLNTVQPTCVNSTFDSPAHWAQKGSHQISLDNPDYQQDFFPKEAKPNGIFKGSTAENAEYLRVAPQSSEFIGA
Chain of Ba/F3 EGFR-D770-N771ins_SVD (P00533 with tags, fused parts or gaps DUP768-770): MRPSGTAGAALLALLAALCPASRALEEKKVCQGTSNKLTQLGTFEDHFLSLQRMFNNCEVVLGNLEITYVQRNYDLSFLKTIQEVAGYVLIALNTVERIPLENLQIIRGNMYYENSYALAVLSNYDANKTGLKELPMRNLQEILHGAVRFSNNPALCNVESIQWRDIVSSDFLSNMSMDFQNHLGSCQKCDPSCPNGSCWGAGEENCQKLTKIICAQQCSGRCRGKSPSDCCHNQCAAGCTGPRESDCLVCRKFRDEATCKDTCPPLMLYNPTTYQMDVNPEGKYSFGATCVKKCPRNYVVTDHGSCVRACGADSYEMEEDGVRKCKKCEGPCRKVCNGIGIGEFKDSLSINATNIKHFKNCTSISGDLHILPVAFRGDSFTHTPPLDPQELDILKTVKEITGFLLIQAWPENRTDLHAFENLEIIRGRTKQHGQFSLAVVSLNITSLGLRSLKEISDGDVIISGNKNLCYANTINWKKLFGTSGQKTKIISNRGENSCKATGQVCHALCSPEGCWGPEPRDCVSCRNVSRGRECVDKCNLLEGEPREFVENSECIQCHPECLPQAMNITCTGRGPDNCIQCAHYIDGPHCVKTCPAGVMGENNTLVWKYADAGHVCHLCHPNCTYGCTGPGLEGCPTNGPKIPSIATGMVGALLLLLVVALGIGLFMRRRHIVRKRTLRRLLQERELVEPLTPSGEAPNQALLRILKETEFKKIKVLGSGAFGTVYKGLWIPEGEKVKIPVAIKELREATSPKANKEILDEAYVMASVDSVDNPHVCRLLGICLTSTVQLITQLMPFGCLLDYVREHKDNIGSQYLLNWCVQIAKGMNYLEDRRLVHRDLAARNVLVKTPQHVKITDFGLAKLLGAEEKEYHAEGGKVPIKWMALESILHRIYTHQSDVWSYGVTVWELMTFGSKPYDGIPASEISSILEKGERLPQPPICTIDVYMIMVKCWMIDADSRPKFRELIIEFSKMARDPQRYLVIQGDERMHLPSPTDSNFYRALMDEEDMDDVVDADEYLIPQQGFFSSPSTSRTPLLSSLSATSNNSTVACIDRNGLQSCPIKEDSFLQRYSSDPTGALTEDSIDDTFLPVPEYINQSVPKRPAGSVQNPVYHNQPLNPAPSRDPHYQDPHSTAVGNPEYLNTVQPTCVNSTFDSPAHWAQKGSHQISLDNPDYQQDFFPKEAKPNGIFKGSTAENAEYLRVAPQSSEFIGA

SMILES	GI50 [1] [nM]	IC50 [2] [nM]	GI50 [3] [nM]
C=CC(=O)Nc1cc2c(Nc3cc(-c4ncc(F)cc4F)ccc3F)ncnc2cc1OCCCN1CCOCC1 [Example 2, N-(4-((5-(3,5-difluoropyridin-2-yl)-2-fluorophenyl)amino)-7-(3-morpholinopropoxy)quinazolin-6-yl)acrylamide]	121	–	–
C=CC(=O)Nc1cc2c(Nc3cccc(-c4ccc(F)cc4F)c3)ncnc2cc1C#CC(C)(C)N(C)C [Example 9, N-(4-((2′,4′-difluoro-[1,1′-biphenyl]-3-yl)amino)-7-(3-(dimethylamino)-3-methylbut-1-yn-1-yl)quinazolin-6-yl)acrylamide]	40.1	625	–
C=CC(=O)Nc1cc2c(Nc3cc(-c4ccc(F)cc4F)ccc3F)ncnc2cc1OCCN1CCOCC1 [Example 10, N-(7-(2-morpholinoethoxy)-4-((2′,4,4′-trifluoro-[1,1′-biphenyl]-3-yl)amino)quinazolin-6-yl)acrylamide]	28.7	625	–
C=CC(=O)Nc1cc2c(Nc3cccc(-c4ccc(F)cc4F)c3)ncnc2cc1C#CC(C)(C)N1CCN(C)CC1 [Example 12, N-(4-((2′,4′-difluoro-[1,1′-biphenyl]-3-yl)amino)-7-(3-methyl-3-(4-methylpiperazin-1-yl)but-1-yn-1-yl)quinazolin-6-yl)acrylamide]	32.3	624	–
C=CC(=O)Nc1cc2c(Nc3cccc(-c4ccc(F)cn4)c3)ncnc2cc1OCCCN1CCOCC1 [Example 13, N-(4-((3-(5-fluoropyridin-2-yl)phenyl)amino)-7-(3-morpholinopropoxy)quinazolin-6-yl)acrylamide]	105	625	–
C=CC(=O)Nc1cc2c(Nc3cccc(-c4ncc(F)cc4F)c3)ncnc2cc1OCCN1CCOCC1 [Example 16, N-(4-((3-(3,5-difluoropyridin-2-yl)phenyl)amino)-7-(2-morpholinoethoxy)quinazolin-6-yl)acrylamide]	34	372	–
C=CC(=O)Nc1cc2c(Nc3cc(-c4ncc(F)cc4F)ccc3F)ncnc2cc1OCCN1CCOCC1 [Example 18, N-(4-((5-(3,5-difluoropyridin-2-yl)-2-fluorophenyl)amino)-7-(2-morpholinoethoxy)quinazolin-6-yl)acrylamide]	129	–	–
C=CC(=O)Nc1cc2c(Nc3cc(-c4ccc(F)cn4)ccc3F)ncnc2cc1OCCCN1CCOCC1 [Example 23, N-(4-((2-fluoro-5-(5-fluoropyridin-2-yl)phenyl)amino)-7-(3-morpholinopropoxy)quinazolin-6-yl)acrylamide]	261	–	–
C=CC(=O)Nc1cc2c(Nc3cccc(-c4c(F)cc(F)cc4F)c3)ncnc2cc1OCCN1CCOCC1 [Example 24, N-(7-(2-morpholinoethoxy)-4-((2′,4′,6′-trifluoro-[1,1′-biphenyl]-3-yl)amino)quinazolin-6-yl)acrylamide]	46.2	378	–
C=CC(=O)Nc1cc2c(Nc3ccnc(-c4ccccc4F)c3)ncnc2cc1OCC(F)(F)F [Example 84, N-(4-((2-(2-fluorophenyl)pyridin-4-yl)amino)-7-(2,2,2-trifluoroethoxy)quinazolin-6-yl)acrylamide]	–	1780	3.2
C=CC(=O)Nc1cc2c(Nc3ccnc(-c4ccccc4F)c3)ncnc2cc1OCCOC [Example 85, N-(4-((2-(2-fluorophenyl)pyridin-4-yl)amino)-7-(2-methoxyethoxy)quinazolin-6-yl)acrylamide]	–	1530	3
C=C(F)C(=O)Nc1cc2c(Nc3ccnc(-c4ccccc4F)c3)ncnc2cc1OCCOC [Example 89, 2-fluoro-N-(4-((2-(2-fluorophenyl)pyridin-4-yl)amino)-7-(2-methoxyethoxy)quinazolin-6-yl)acrylamide]	–	112	12.8
C=C(F)C(=O)Nc1cc2c(Nc3ccnc(-c4ccccc4F)c3)ncnc2cc1N1CCN(C)CC1 [Example 101, 2-fluoro-N-(4-((2-(2-fluorophenyl)pyridin-4-yl)amino)-7-(4-methylpiperazin-1-yl)quinazolin-6-yl)acrylamide]	–	240	20.8
C=C(F)C(=O)Nc1cc2c(Nc3ccnc(-c4ccccc4F)c3)ncnc2cc1N1CC(OC)C1 [Example 104, 2-fluoro-N-(4-((2-(2-fluorophenyl)pyridin-4-yl)amino)-7-(3-methoxyazetidin-1-yl)quinazolin-6-yl)acrylamide]	–	1190	30
C=C(F)C(=O)Nc1cc2c(Nc3ccnc(-c4ccccc4F)c3)ncnc2cc1N1CC(F)C1 [Example 106, 2-fluoro-N-(7-(3-fluoroazetidin-1-yl)-4-((2-(2-fluorophenyl)pyridin-4-yl)amino)quinazolin-6-yl)acrylamide]	–	1640	40.9
C=C(F)C(=O)Nc1cc2c(Nc3ccnc(-c4ccccc4F)c3)ncnc2cc1N1CC(F)(F)C1 [Example 107, N-(7-(3,3-difluoroazetidin-1-yl)-4-((2-(2-fluorophenyl)pyridin-4-yl)amino)quinazolin-6-yl)-2-fluoroacrylamide]	18.3	2500	–
C=C(F)C(=O)Nc1cc2c(Nc3ccnc(-c4ccccc4F)c3)ncnc2cc1N1CCC(F)(F)C1 [Example 108, N-(7-(3,3-difluoropyrrolidin-1-yl)-4-((2-(2-fluorophenyl)pyridin-4-yl)amino)quinazolin-6-yl)-2-fluoroacrylamide]	–	–	29.9
C=C(F)C(=O)Nc1cc2c(Nc3ccnc(-c4ccccc4F)c3)ncnc2cc1N1CCC(F)CC1 [Example 109, 2-fluoro-N-(4-((2-(2-fluorophenyl)pyridin-4-yl)amino)-7-(4-fluoropiperidin-1-yl)quinazolin-6-yl)acrylamide]	–	159	25.8
C=C(F)C(=O)Nc1cc2c(Nc3ccnc(-c4ccccc4F)c3)ncnc2cc1N1CCC(F)(F)CC1 [Example 110, N-(7-(4,4-difluoropiperidin-1-yl)-4-((2-(2-fluorophenyl)pyridin-4-yl)amino)quinazolin-6-yl)-2-fluoroacrylamide]	–	703	52.6
C=CC(=O)Nc1cc2c(Nc3ccnc(-c4ccccc4F)c3)ncnc2cc1O[C@@H]1CCN(C2CN(C)C2)C1 [Example 115, (R)-N-(4-((2-(2-fluorophenyl)pyridin-4-yl)amino)-7-((1-(1-methylazetidin-3-yl)pyrrolidin-3-yl)oxy)quinazolin-6-yl)acrylamide]	–	23.2	7.6
C=CC(=O)Nc1cc2c(Nc3ccnc(-c4ccccc4F)c3)ncnc2cc1O[C@@H]1CCN(C2CCOCC2)C1 [Example 117, (R)-N-(4-((2-(2-fluorophenyl)pyridin-4-yl)amino)-7-((1-(tetrahydro-2H-pyran-4-yl)pyrrolidin-3-yl)oxy)quinazolin-6-yl)acrylamide]	–	988	2.9
C=C(F)C(=O)Nc1cc2c(Nc3ccnc(-c4ccccc4F)c3)ncnc2cc1O[C@@H]1CCN(C2CN(C)C2)C1 [Example 119, (R)-2-fluoro-N-(4-((2-(2-fluorophenyl)pyridin-4-yl)amino)-7-((1-(1-methylazetidin-3-yl)pyrrolidin-3-yl)oxy)quinazolin-6-yl)acrylamide]	–	10.2	3.4
C=C(F)C(=O)Nc1cc2c(Nc3ccnc(-c4ccccc4F)c3)ncnc2cc1O[C@@H]1CCN(C2CCN(C)CC2)C1 [Example 120, (R)-2-fluoro-N-(4-((2-(2-fluorophenyl)pyridin-4-yl)amino)-7-((1-(1-methylpiperidin-4-yl)pyrrolidin-3-yl)oxy)quinazolin-6-yl)acrylamide]	–	6	7.1
